Drawing on US20040147574A1, “Isothiazole derivatives” (Pfizer Inc, priority 2003, published 2004), this text covers IC50 for 24 compounds.

pIC50: −log10 of the molar value.

For the experiment, the target named is T1, TβRII kinase (Homo sapiens, UniProt P37173).
T1 construct: cytoplasmic domain of TβRII-amino acids 193-567 with A to V change at 438
T1 sequence (P37173 193-567): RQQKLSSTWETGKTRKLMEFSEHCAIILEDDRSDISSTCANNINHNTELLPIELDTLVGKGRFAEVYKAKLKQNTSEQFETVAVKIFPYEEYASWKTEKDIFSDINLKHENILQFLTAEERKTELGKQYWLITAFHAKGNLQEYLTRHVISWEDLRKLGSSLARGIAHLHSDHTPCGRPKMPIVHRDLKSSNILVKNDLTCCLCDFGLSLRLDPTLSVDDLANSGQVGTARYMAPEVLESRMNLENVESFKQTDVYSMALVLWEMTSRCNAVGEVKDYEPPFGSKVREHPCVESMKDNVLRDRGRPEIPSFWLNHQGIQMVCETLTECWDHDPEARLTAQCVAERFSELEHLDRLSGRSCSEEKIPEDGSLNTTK
The experiment is described as follows: TGF-β Type II Receptor (TβRII) kinase assay: phosphorylation of myelin basic protein. Particulars: GST-TβRII 27 nanomolar, MBP 3 micromolar, ATP 0.25 micromolar, 90 minutes at room temperature. Format: biochemical. The procedure: Phosphorylation of myelin basic protein (MBP) by the TβRII kinase was measured as follows: 80 microliters of MBP (Upstate Biotechnology #13-104) diluted in kinase reaction buffer (KRB) containing 50 mM MOPS, 5 mM MgCl2, pH 7.2 to yield a final concentration of 3 micromolar MBP was added to each well of a Millipore 96-well multiscreen-DP 0.65 micron filtration plate (#MADPNOB50). 20 microliters of inhibitor diluted in KRB was added to appropriate wells to yield the desired final concentration (10-0.03 micromolar). 10 microliters of a mixture of ATP (Sigma #A-5394) and ^33P-ATP (Perkin Elmer #NEG/602H) diluted in KRB was added to yield a final concentration of 0.25 micromolar ATP and 0.02 microcuries of ^33P-ATP per well. 10 microliters of a GST-TβRII fusion protein (glutathione S-transferase at the N-terminal end of the cytoplasmic domain of TβRII-amino acids 193-567 with A to V change at 438) diluted in KRB was added to each well to yield a final concentration of 27 nanomolar GST-TβRII. Plates were mixed and incubated for 90 minutes at room temperature. After the reaction incubation, 100 microliters of cold 20% trichloroacetic acid (Aldrich #25,139-9) was added per well and plates were mixed and incubated for 60 minutes at 4° C. Liquid was then removed from the wells using a Millipore vacuum manifold. Plates were washed once with 200 microliters per well of cold 10% trichloroacetic acid followed by two washes with 100 microliters per well of cold 10% trichloroacetic acid. Plates were allowed to dry overnight at room temperature. 20 microliters of Wallac OptiPhase SuperMix scintillation cocktail was added to each well. Plates were sealed and counted using a Wallac 1450 Microbeta liquid scintillation counter. The potency of inhibitors was determined by their ability to reduce TβRII-mediated phosphorylation of the MBP substrate.
In the case of `NC(=O)c1c(OCc2cccnc2)nsc1NC(=O)NC[C@H]1CCCCCC[C@H]1O` [Example 22, (R),(R)-5-[3-(2-Hydroxy-cyclooctylmethyl)-ureido]-3-(pyridin-3-ylmethoxy)-isothiazole-4-carboxylic acid amide], the pIC50 (as a rule, the negative decadic logarithm of the IC50, by convention in mol/L) is 6.12.

In turn, `CN1CCCC1CCNC(=O)Nc1snc(OCc2cccnc2)c1C(N)=O` (stereo not drawn) [Example 19, 5-{3-[2-(1-Methyl-pyrrolidin-2-yl)-ethyl]-ureido}-3-(pyridin-3-ylmethoxy)-isothiazole-4-carboxylic acid amide] showed a pIC50 of 6.34.

In turn, `CCC(O)CNC(=O)Nc1snc(OCc2cccnc2)c1C(N)=O` (stereo not drawn) [Example 24, 5-[3-(2-Hydroxy-butyl)-ureido]-3-(pyridin-3-ylmethoxy)-isothiazole-4-carboxylic acid amide] had a negative-log IC50 (pIC50) of 6.17.

As for `Cc1ccc(C)c(CNC(=O)Nc2snc(OCc3cccnc3)c2C(N)=O)c1` [Example 4, 5-[3-(2,5-Dimethyl-benzyl)-ureido]-3-(pyridin-3-ylmethoxy)-isothiazole-4-carboxylic acid amide], the negative logarithm of the IC50 (pIC50) is 5.80.

`CCOc1cc(CCNC(=O)Nc2snc(OCc3cccnc3)c2C(N)=O)ccc1OC` [Example 8, 5-{3-[2-(3-Ethoxy-4-methoxy-phenyl)-ethyl]-ureido}-3-(pyridin-3-ylmethoxy)-isothiazole-4-carboxylic acid amide] had a pIC50 of 5.71.

For `NC(=O)c1c(OCc2cccnc2)nsc1NC(=O)NC[C@H]1CCCCC[C@H]1O` [Example 21, (R),(R)-5-[3-(2-Hydroxy-cycloheptylmethyl)-ureido]-3-(pyridin-3-ylmethoxy)-isothiazole-4-carboxylic acid amide], the pIC50 was 6.12.

The compound `NC(=O)c1c(OCc2cccnc2)nsc1NC(=O)NCCN1CCOCC1` [Example 16, 5-[3-(2-Morpholin-4-yl-ethyl)-ureido]-3-(pyridin-3-ylmethoxy)-isothiazole-4-carboxylic acid amide] gave a pIC50 of 6.07.

For the compound `NC(=O)c1c(OCc2cccnc2)nsc1NC(=O)NCCc1cccc(Cl)c1` [Example 9, 5-{3-[2-(3-Chloro-phenyl)-ethyl]-ureido}-3-(pyridin-3-ylmethoxy)-isothiazole-4-carboxylic acid amide], the pIC50 is 5.65.

Take `CC1CCCCN1CCCNC(=O)Nc1snc(OCc2cccnc2)c1C(N)=O` (stereo not drawn) [Example 20, 5-{3-[3-(2-Methyl-piperidin-1-yl)-propyl]-ureido}-3-(pyridin-3-ylmethoxy)-isothiazole-4-carboxylic acid amide]: the pIC50 was 6.02.

For the compound `NC(=O)c1c(OCc2cccnc2)nsc1NC(=O)NCCc1cccc(F)c1` [Example 13, 5-{3-[2-(3-Fluoro-phenyl)-ethyl]-ureido}-3-(pyridin-3-ylmethoxy)-isothiazole-4-carboxylic acid amide], the negative-log IC50 (pIC50) was 5.83.

As for `NC(=O)c1c(OCc2cccnc2)nsc1NC(=O)NCCc1ccccc1Cl` [Example 11, 5-{3-[2-(2-Chloro-phenyl)-ethyl]-ureido}-3-(pyridin-3-ylmethoxy)-isothiazole-4-carboxylic acid amide], the negative logarithm of the IC50 (pIC50) was 5.52.

Regarding `NC(=O)c1c(OCc2cccnc2)nsc1NC(=O)NCCc1ccccc1F` [Example 12, 5-{3-[2-(2-Fluoro-phenyl)-ethyl]-ureido}-3-(pyridin-3-ylmethoxy)-isothiazole-4-carboxylic acid amide], the negative-log IC50 (pIC50) was 5.51.

The compound `CCOc1ccc(CCNC(=O)Nc2snc(OCc3cccnc3)c2C(N)=O)cc1OC` [Example 14, 5-{3-[2-(4-Ethoxy-3-methoxy-phenyl)-ethyl]-ureido}-3-(pyridin-3-ylmethoxy)-isothiazole-4-carboxylic acid amide] gave a negative-log IC50 (pIC50) of 6.26.

As for `COc1cccc(CCNC(=O)Nc2snc(OCc3cccnc3)c2C(N)=O)c1` [Example 10, 5-{3-[2-(3-Methoxy-phenyl)-ethyl]-ureido}-3-(pyridin-3-ylmethoxy)-isothiazole-4-carboxylic acid amide], the pIC50 was 5.67.

`NC(=O)c1c(OCc2cccnc2)nsc1NC(=O)NCCO` [Example 23, 5-[3-(2-Hydroxy-ethyl)-ureido]-3-(pyridin-3-ylmethoxy)-isothiazole-4-carboxylic acid amide] gave a pIC50 of 6.46.

In the case of `COc1cccc(OC)c1CNC(=O)Nc1snc(OC(C)c2cccnc2)c1C(N)=O` (stereo not drawn) [Example 26, 5-[3-(2,6-Dimethoxy-benzyl)-ureido]-3-(1-pyridin-3-yl-ethoxy)-isothiazole-4-carboxylic acid amide], the pIC50 was 6.30.

On to `CNC(=O)Nc1snc(OC(C)c2cccnc2)c1C(N)=O` (stereo not drawn) [Example 27, 5-(3-Methyl-ureido)-3-(1-pyridin-3-yl-ethoxy)-isothiazole-4-carboxylic acid amide], for which the negative-log IC50 (pIC50) was 6.15.

Regarding `COc1ccc(CCNC(=O)Nc2snc(OCc3cccnc3)c2C(N)=O)cc1OC` [Example 6, 5-{3-[2-(3,4-Dimethoxy-phenyl)-ethyl]-ureido}-3-(pyridin-3-ylmethoxy)-isothiazole-4-carboxylic acid amide], the pIC50 is 6.12.

In the case of `CC(Oc1nsc(NC(=O)NCc2ccccn2)c1C(N)=O)c1cccnc1` (stereo not drawn) [Example 25, 3-(1-Pyridin-3-yl-ethoxy)-5-(3-pyridin-2-ylmethyl-ureido)-isothiazole-4-carboxylic acid amide], the negative-log IC50 (pIC50) is 5.13.

In turn, `CCN(CC)CCNC(=O)Nc1snc(OCc2cccnc2)c1C(N)=O` [Example 17, 5-[3-(2-Diethylamino-ethyl)-ureido]-3-(pyridin-3-ylmethoxy)-isothiazole-4-carboxylic acid amide] gave a pIC50 of 5.71.

For `NC(=O)c1c(OCc2cccnc2)nsc1NC(=O)NCCc1ccccc1` [Example 7, 5-(3-Phenethyl-ureido)-3-(pyridin-3-ylmethoxy)-isothiazole-4-carboxylic acid amide], the negative logarithm of the IC50 (pIC50) is 6.03.

`NC(=O)c1c(OCc2cccnc2)nsc1NC(=O)NCCC1=CCCCC1` [Example 3, 5-[3-(2-Cyclohex-1-enyl-ethyl)-ureido]-3-(pyridin-3-ylmethoxy)-isothiazole-4-carboxylic acid amide]: the pIC50 was 5.79.

`NC(=O)c1c(OCc2cccnc2)nsc1NC(=O)NCCCN1CCOCC1` [Example 15, 5-[3-(3-Morpholin-4-yl-propyl)-ureido]-3-(pyridin-3-ylmethoxy)-isothiazole-4-carboxylic acid amide] showed a pIC50 of 6.36.

In turn, `CN(C)CCCNC(=O)Nc1snc(OCc2cccnc2)c1C(N)=O` [Example 18, 5-[3-(3-Dimethylamino-propyl)-ureido]-3-(pyridin-3-ylmethoxy)-isothiazole-4-carboxylic acid amide] had a pIC50 of 6.10.
